According to patent EP1282725B1, “METHODS OF MODULATING FUNCTIONS OF POLYPEPTIDE GalNAc TRANSFERASES AND OF SCREENING SUBSTANCES THEREFOR” (Glycozym ApS, priority 2000, dated 2001):

How the values were obtained:
GalNAc-T7 = test: Inhibition of GalNAc-T7 activity with GalNAc2-3EA2 substrate; assay type: biochemical, human; conditions: for inhibition of the activity of GalNAc-T7 with GalNAc2-3EA2: 5 mM concentrations; for Activity in the presence of inhibitors: inhibitors 5 mM, GalNAc2-3EA2 substrate, without inhibitor 6.8
Method: (§1) Standard reaction mixtures (50 µl final volume) contained 25 mM cocadylate (pH 7.4), 10 mM MnCl2, 0.25% Triton X-100, 200 µM UDP-[^14C]-GalNAc (2,000 cpm/nmol) (Amer-sham), 200-500 µM acceptor peptides. Products were quantified by scintillation counting after chromatography on Dowex-1, octadecyl silica cartridges (Bakerbond), or HPLC (PC3.2/3 or mRPC C2/C18 SC2.1/10 Pharmacia, Smart System). […] Glycopeptides were purified on Supelclean LC-18 columns (1 ml, Supelco), and the number of GalNAc residues incorporated evaluated by MALDI-TOF mass spectrometry. The enzyme sources used were semipurified as previously described by successive sequential ion-exchange chromatographies on Amberlite (IRA95, Sigma) or DEAE Sephacel (Pharmacia), S-Sepharose Fast Flow (Pharmacia), and Mini-S™ (PC 3.2/3, Pharmacia) using the Smart System (Pharmacia) (28). Secreted GalNAc-T4 was obtained from a stably transfected CHO line (CHO/GalNA-T4/21A) (8) grown in roller bottles in HAMS F12 supplemented with 10 % Fetal Bovine Serum. The experiments illustrated in Fig. 1 was performed with recombinant secreted GalNAc-T4 obtained from a stably transfected CHO line (8). Experiments illustrated in Figs. 2 and 3 were performed with secreted GalNAc-T4 expressed in High Five cells grown in serum-free medium (8). Structural analysis of glycopeptides were performed by a combination of PFPA (pentafluoropropionic acid) hydrolysis and MALDI-TOF mass spectrometry as previously described (40). Secreted GalNAc-T7 was obtained from infected High Five™ cells grown in serum-free medium (Invitrogen) in upright roller bottles shaken 140 rpm in waterbaths at 27 °C. GalNAc-T7 was not purified by Mini-S as the yields from cationic chromatography were low due to its low pI (6.4).
GalNAc-T7 activity was analysed with GalNAc glycosylated glycopeptides (represented by GalNAc2-3EA2 (7)) in reactions of 25 µl containing 2.5 nmol acceptor (glyco)peptide, 40 nmol UDP-GalNAc, and purified GalNAc-T7. […] Further, analysis was performed with 10 mM α-D-GalNAc-1-benzyl, αGlcNAc-benzyl, and fully occupied GalNAc-glycopeptide, GalNAc6TAP25, at 5 mM.

GalNAc-T4 [1] = test: Inhibition of the glycosylation dependent (GalNAc-glycopeptide) activity of GalNAc-T4, time-course MALDI-TOF; assay type: biochemical, human
Method: (§2) MALDI-TOF time-course in terminal reactions were performed in reactions of 25 µl containing 2.5 nmol acceptor (glyco)peptide, 40 nmol UDP-GalNAc, and 0.4 µg GalNAc-T4. Sampling of reactions (1 µl) were purified by nano-scale reversed-phase chromatography (Poros R3, PerSeptive Biosystem) and applied directly to the probe with matrix (41). The amount of GalNAc-transferase added was adjusted so that the reaction with the appropriate peptide was near completion in six hours. Reactions were incubated at 37°C in a shaker bath. At times 0, 2 hours, and 16 hours a 1 µl aliquot was taken and purified. Mass spectra were acquired on either Voyager-DE mass spectrometer equipped with delayed extraction (Perseptive Biosystem Inc.). The matrix used was 2,5-dihydroxybenzoic acid (10 mg/ml, Hewlett-Packard) dissolved in a 2:1 mixture of 0.1% trifluoroacetic acid in 30 % aqueous acetonitrile (Rathburn Ltd.).
Quantification of purified proteins was done by Coomassie stained SDS-PAGE and titration of immunoreactivity with the monoclonal antibody, UH6(4G2) (8). […] Wild-type GalNAc-T4 and mutant GalNAc-T4, GalNAc-T4^459H, were analysed with unglycosylated peptides (represented by PSGL-1) or GalNAc glycosylated glycopeptides (represented by GalNAc3TAP25V21) in reactions of 25 µl containing 2.5 nmol acceptor (glyco)peptide, 40 nmol UDP-GalNAc, and 0.4 µg GalNAc-T4. Time-course assays were motioned by MALDI-TOF. Sampling of reactions (1 µl) were purified by nano-scale reversed-phase chromatography (Poros R3, PerSeptive Biosystem) and applied directly to the probe with matrix. Evaluation of inhibition of the glycopeptide specificity of wild-type GalNAc-T4 with free sugars was performed to establish if the lectin domain recognized carbohydrate. […] Further, analysis was performed with 10 mM α-D-GalNAc-1-benzyl, αGlcNAc-benzyl, and fully occupied GalNAc-glycopeptide, GalNAc6TAP25, at 5 mM.

GalNAc-T2 [2] = test: Inhibition of GalNAc-T2 activities with Muc2 acceptor substrate; assay type: biochemical, human; conditions: for Activity in the presence of inhibitors: inhibitors 230 mM, Muc2 acceptor
Method: as §1, with “Products” for “Standard reaction mixtures (50 µl final volume) contained 25 mM cocadylate (pH 7.4), 10 mM MnCl2, 0.25% Triton X-100, 200 µM UDP-[^14C]-GalNAc (2,000 cpm/nmol) (Amer-sham), 200-500 µM acceptor peptides. Products”, “Mini-S^TM” for “Mini-S™”, “([…])” for “(CHO/GalNA-T4/21A)”, “Five^TM” for “Five™”, “(6.4). […] Galactosyl transferring activities of GalNAc-T1, -T2, and -T3, were assayed with a panel of acceptor peptides in standard reaction mixtures containing 100 μM UDP-Gal instead of UDP-GalNAc.” for “(6.4).”

GalNAc-T3 = test: Inhibition of GalNAc-T3 activities with EA2 acceptor substrate; assay type: biochemical, human; conditions: for Activity in the presence of inhibitors: inhibitors 230 mM, EA2 acceptor
Method: as §1, with “Products” for “Standard reaction mixtures (50 µl final volume) contained 25 mM cocadylate (pH 7.4), 10 mM MnCl2, 0.25% Triton X-100, 200 µM UDP-[^14C]-GalNAc (2,000 cpm/nmol) (Amer-sham), 200-500 µM acceptor peptides. Products”, “Mini-S^TM” for “Mini-S™”, “([…])” for “(CHO/GalNA-T4/21A)”, “Five^TM” for “Five™”, “(6.4). […] Galactosyl transferring activities of GalNAc-T1, -T2, and -T3, were assayed with a panel of acceptor peptides in standard reaction mixtures containing 100 μM UDP-Gal instead of UDP-GalNAc.” for “(6.4).”

[3] = tested on: GalNAc-T4^459D or -T4^459H; test: Glycosylation independent activity of GalNAc-T4 wild-type and lectin mutant with naked peptides, MALDI-TOF; assay type: biochemical, human; conditions: naked peptides (PSGL-1); free sugars
Method: as §2
Quantification of purified proteins was done by Coomassie stained SDS-PAGE and titration of immunoreactivity with the monoclonal antibody, UH6(4G2) (8). […] Wild-type GalNAc-T4 and mutant GalNAc-T4, GalNAc-T4^459H, were analysed with unglycosylated peptides (represented by PSGL-1) or GalNAc glycosylated glycopeptides (represented by GalNAc3TAP25V21) in reactions of 25 µl containing 2.5 nmol acceptor (glyco)peptide, 40 nmol UDP-GalNAc, and 0.4 µg GalNAc-T4. […]

GalNAc-T2 [4] = test: Direct binding to free GalNAc, conventional binding assays; set-up: species or system human
GalNAc-T4 [5] = test: as above; set-up: species or system human
[6] = […] free sugars, GalNAc3TAP25V21 glycopeptide substrate
[7] = donor UDP-Gal, without inhibitor 90
[8] = donor UDP-GalNAc, without inhibitor 340
[9] = donor UDP-Gal, without inhibitor 6.3
[10] = donor UDP-GalNAc, without inhibitor 34

Row | Compound | inhibition of the activity of GalNAc-T7 with GalNAc2-3EA2 (GalNAc-T7) | Activity in the presence of inhibitors (GalNAc-T7) [nmol/min/mL] | inhibition of the glycosylation dependent specificity of GalNAc-T4 (GalNAc-T4 [1]; [6]) | Activity in the presence of inhibitors (GalNAc-T2 [2]; [7]) [nmol/min/mL] | Activity in the presence of inhibitors (GalNAc-T2 [2]; [8]) [nmol/min/mL] | Activity in the presence of inhibitors (GalNAc-T3; [9]) [nmol/min/mL] | Activity in the presence of inhibitors (GalNAc-T3; [10]) [nmol/min/mL] | also measured
1 | CC(=O)N[C@H]1[C@@H](OCc2ccccc2)O[C@H](CO)[C@H](O)[C@@H]1O [bz-αGalNAc, α-D-GalNAc-1-benzyl] | significantly inhibited | 5.4 | – | – | – | – | – | –
2 | OC[C@H]1OC(O)[C@H](O)[C@@H](O)[C@H]1O (stereo partly shown) [Gal] | – | – | failed to show significant inhibition | 89 | 300 | 7.3 | 33 | –
3 | CC(=O)N[C@H]1[C@@H](OCc2ccccc2)O[C@H](CO)[C@H](O)[C@@H]1O[C@@H]1O[C@H](CO)[C@H](O)[C@H](O)[C@H]1O [Galβ1-3GaINAcα1-bz, Galβ1-3GalNAcα1-benzyl] | significantly inhibited | 4.5 | – | – | – | – | – | inhibition of GalNAc-T4 glycopeptide activity compared to GalNAc (GalNAc-T4 [1]; concentration not given): neither Gal nor Galβ1-3GalNAcα1-benzyl produced significant inhibition
4 | OC[C@H]1O[C@@H](OCc2ccccc2)[C@H](O)[C@@H](O)[C@H]1O [bz-βGal] | significantly inhibited | 4.7 | – | – | – | – | – | –
5 | CC(=O)N[C@H]1[C@@H](OCc2ccccc2)O[C@H](CO)[C@@H](O)[C@@H]1O [αGlcNAc-benzyl] | – | – | – | – | – | – | – | inhibition of the glycosylation dependent specificity of GalNAc-T4 (GalNAc-T4 [1]; 10 mM benzyl glycoside): did not inhibit catalytic activity
6 | CC(=O)N[C@H]1C(O)O[C@H](CO)[C@@H](O)[C@@H]1O (stereo partly shown) [GlcNAc] | – | – | failed to show significant inhibition | 68 | 310 | 7 | 32 | –
7 | OC[C@H]1O[C@H](OCc2ccccc2)[C@@H](O)[C@@H](O)[C@@H]1O [bz-αMan] | – | 6.7 | – | – | – | – | – | –
8 | CC(=O)N[C@H]1C(O)O[C@H](CO)[C@H](O)[C@@H]1O (stereo partly shown) [GalNAc, N-acetylgalactosamine] | – | – | – | 24 | 300 | 2.5 | 35 | inhibition of the glycosylation dependent specificity of GalNAc-T4 (GalNAc-T4 [1]; 50 mM sugars (not shown)): approximately 50%; effect on the glycosylation independent activities of GalNAc-T4 [3]: no effect on the general catalytic function of the enzyme; inhibition of the galactosyltransferase activity with Muc2 substrate (GalNAc-T2 [2]; donor UDP-Gal): selectively inhibited; inhibition of the galactosyltransferase activity of GalNAc-T3 (GalNAc-T3; donor UDP-Gal): selectively inhibited; direct binding of GalNAc-T2 to free GalNAc (GalNAc-T2 [4]): could not detect direct binding; direct binding of GalNAc-T4 to free GalNAc (GalNAc-T4 [5]): could not detect direct binding
9 | C[C@@H]1OC(O)[C@@H](O)[C@H](O)[C@@H]1O (stereo partly shown) [Fuc] | – | – | failed to show significant inhibition | 89 | 370 | 6.5 | 34 | –
